Measurements: paper PMC9944328 (Nature Communications, 2023)

Key:
SSTR2 [1] = target: SSTR2 (Homo sapiens, UniProt P30874); experiment: Bystander BRET endosomal trafficking (β-arrestin 1-Nluc, FYVE-mVenus), HEK293 (SSTR2 wild-type); type: cell-based; design: The human full-length SSTRs and mutants were cloned into the pcDNA3.1+ vector; expressed in transfected cells; host or cells: HEK293;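 note: HEK293 cells coexpressing Nluc-tagged β-arrestin 1 and mVenus-fused FYVE endosomal marker, bystander BRET ratio read after ligand addition, coelenterazine h substrate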
Experimental: Wild-type or mutant SSTR2, β-arrestin 1-Nluc and FYVE-mVenus were co-transfected in HEK293 cells at a ratio of 1:0.5:4 on six-well plates. The next day, the transfected cells were plated on white 96-well and incubated overnight, and then cells were incubated with 90 µL HBSS containing 20 mM HEPES and coelenterazine h (5 µM) at room temperature for 40 min. After incubation, ligand was added and the signal was measured using the Synergy H1 microplate reader (BioTek) to determine a BRET ratio.

GH3 cells = experiment: Cell apoptosis assay, Annexin V-FITC/PI flow cytometry, GH3 cells overexpressing SSTR2, 48 h; type: cell-based, rat
Experimental: The rat pituitary GH3 cells (ATCC, CCL-82.1) were seeded in 12-well plates at 1.5 × 10^5/well. […] Then, the cells were collected for the apoptosis assay according to the instruction of the Annexin V-FITC/PI apoptosis detection kit (BD Biosciences). Briefly, the cells were washed with cold PBS and resuspended in 1 × binding buffer. Then, 5 μl of Annexin V-FITC was added and incubated for 10 min and stained with 5 μl of PI for 5 min in the dark at room temperature. All samples were acquired by a Novocyte flow cytometer (ACEA Biosciences, China), and data were analyzed with NovoExpress^TM software.

SSTR2 [2] = experiment: Bias factor (β value), Gi cAMP inhibition versus β-arrestin recruitment; type: cell-based, human
Experimental: (§1) The levels of the intracellular 3′, 5′-cyclic AMP (cAMP) were measured by the GloSensor cAMP assay (Promega) as described in the previous studies[28],[41] which has been widely used. The human full-length SSTRs and mutants were cloned into the pcDNA3.1+ vector with a HA signal sequence followed by a Flag tag at the N-terminus. […] Cells were then co-transfected with SSTR wild-type or mutants and GloSensor plasmids. After 24 h of transfection, the cells were dissociated with TrypLE™ Express Enzyme (1X) (Thermo Fisher Scientific) and collected by centrifugation at 500 × g for 5 min. Then the collected cells were suspended in Hank’s balanced salt solution [HBSS (Thermo Fisher Scientific)] supplemented with […] potassium salt solution (YEASEN), and then the suspension cells were seeded into 96-well plates with 90 μl/well. After incubating at room temperature for 40 min, 5 μM forskolin and ligands diluted in HBSS were added to each well and the plates were incubated at room temperature for 15 min. […] signals were measured using the Synergy H1 microplate reader (BioTek) and the data presented are means of at least three independent experiments.
The NanoBiT β-arrestin 1 recruitment assays were carried out according to the method described previously. […] Human full-length SSTR wild-type and mutant vectors were C-terminally fused with a 15-amino acid flexible linker and the small fragment (SmBiT). HEK293 cells were seeded into six-well microplates at a density of 1.0 × 10^6 cells/well and cultured for 24 h at 37 °C with 5% CO2. After that, cells were co-transfected with pcDNA3.1+ vectors encoding SSTR wild-type or mutants and human β-arrestin 1. After transfecting for 24 h, the transfected cells were suspended and seeded into white 96-well plates, and then cultured at 37 °C overnight. After that the medium in each well was exchanged for 90 μl of 0.01% bovine serum albumin containing 20 μl of 50 μM coelenterazine h (Carbosynth) diluted in the HBSS assay buffer and incubated for 40 min at room temperature. Then, ligands diluted in the assay buffer was added to each well and the luminescence intensity was measured using the Synergy H1 microplate reader and detected at room temperature in a time period. All data presented are means of at least three independent experiments.
All data in this study were analyzed using GraphPad Prism 7 and were expressed as the error bars and the standard error of means ± SEM from at least n = 3 biologically independent experiments performed in triplicate. All curve data were normalized to the maximal wild-type and processed using a sigmoidal dose response curve in GraphPad Prism 7. Statistical differences between conditions were determined by one-way of variance ANOVA with Dunnett’s test or T-test.

SSTR3 = target: T1, SSTR3 (Homo sapiens, UniProt P32745); experiment: SSTRs Gi-mediated cAMP inhibition, GloSensor, HEK293 (SSTR3 wild-type); type: cell-based; design: Bottom / Top / Span / Top (best-fit): unit not given here; details: SSTR3-WT; for LogEC50 (best-fit) / Top (best-fit): cAMP inhibition
T1 construct: The human full-length SSTRs and mutants were cloned into the pcDNA3.1+ vector; expressed in transfected cells; host or cells: HEK293 (ATCC, CRL-1573)
Experimental: as §1

SSTR2 mutants = SSTR2 mutants (Homo sapiens, UniProt P30874, I284A); experiment: Bystander BRET endosomal trafficking (β-arrestin 1-Nluc, FYVE-mVenus), HEK293 (SSTR2 mutants); details: for Bottom: Best-fit values;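 for all read-outs here: Read-out is the BRET ratio between Nluc-fused β-arrestin 1 and the early endosome marker FYVE-mVenus, measured after ligand addition with coelenterazine h as substrate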
[3] = Best-fit values, WT-1 (N276A set)
[4] = Best-fit values, WT-1 (P220A, I130A, F265A sets)
[5] = Best-fit values, WT-1 (R140A, Y312A sets)
[6] = Best-fit values, WT-1/-3 (W269A set), WT-2 (N276A set), WT-1 (I284A set)
[7] = Best-fit values, WT-2 (P220A, I130A, F265A sets)
[8] = Best-fit values, WT-2 (R140A, Y312A sets)
[9] = Best-fit values, WT-2 (W269A, I284A sets)
[10] = Best-fit values, WT-3 (N276A set)
[11] = best-fit, SSTR2 WT-1 (control in F294A block), run 1
[12] = best-fit, SSTR2 WT-1 (control in K291A block), run 1
[13] = best-fit, SSTR2 WT-2 (control in F294A block), run 2
[14] = best-fit, SSTR2 WT-2 (control in K291A block), run 2

Sequence of SSTR2 (Homo sapiens, UniProt P30874) (P30874 whole entry, the tested form may be a part): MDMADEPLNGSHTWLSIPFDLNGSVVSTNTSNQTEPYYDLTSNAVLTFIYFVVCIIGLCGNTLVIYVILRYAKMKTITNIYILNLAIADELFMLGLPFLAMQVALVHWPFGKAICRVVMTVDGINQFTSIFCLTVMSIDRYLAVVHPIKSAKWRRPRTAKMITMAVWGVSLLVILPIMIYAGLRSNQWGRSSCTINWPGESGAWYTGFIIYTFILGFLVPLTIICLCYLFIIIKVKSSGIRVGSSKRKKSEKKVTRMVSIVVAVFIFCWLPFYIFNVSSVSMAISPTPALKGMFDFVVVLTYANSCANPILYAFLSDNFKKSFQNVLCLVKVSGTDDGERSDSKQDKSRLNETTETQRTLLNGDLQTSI
T1 sequence (P32745 whole entry): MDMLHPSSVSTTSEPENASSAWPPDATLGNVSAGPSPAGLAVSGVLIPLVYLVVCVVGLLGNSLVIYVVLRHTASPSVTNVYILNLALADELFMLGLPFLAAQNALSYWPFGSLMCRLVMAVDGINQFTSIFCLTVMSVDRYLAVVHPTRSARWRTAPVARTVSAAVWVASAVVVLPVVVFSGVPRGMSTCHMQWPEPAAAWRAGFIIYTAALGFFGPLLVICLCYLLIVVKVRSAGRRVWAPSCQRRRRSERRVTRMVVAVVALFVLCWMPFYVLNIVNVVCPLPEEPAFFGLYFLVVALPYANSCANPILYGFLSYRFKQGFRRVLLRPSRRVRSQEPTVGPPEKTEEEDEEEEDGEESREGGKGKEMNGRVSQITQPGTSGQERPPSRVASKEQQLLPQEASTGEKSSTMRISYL
Sequence of SSTR2 mutants (P30874 whole entry I284A, the tested form may be a part): as the sequence (P30874 whole entry, the tested form may be a part) above, with I284A counted along it

`C[C@@H](O)[C@@H]1NC(=O)[C@H](CCCCN)NC(=O)[C@@H](Cc2c[nH]c3ccccc23)NC(=O)[C@H](Cc2ccccc2)NC(=O)[C@@H](NC(=O)[C@H](N)Cc2ccccc2)CSSC[C@@H](C(=O)N[C@H](CO)[C@@H](C)O)NC1=O` [octreotide] showed a Bottom (SSTR2 [1]; [3]) of -3.249, a Span (SSTR2 [1]; [3]) of 103 and a Top (SSTR2 [1]; [3]) of 99.78. It also gave a Bottom (SSTR2 [1]; [4]) of 16.02, a Span (SSTR2 [1]; [4]) of 79.41 and a Top (SSTR2 [1]; [4]) of 95.44. For the same compound, the Bottom (SSTR2 [1]; [5]) was -2.667, the Span (SSTR2 [1]; [5]) was 105.4 and the Top (SSTR2 [1]; [5]) was 102.8. The Span (SSTR2 [1]; Best-fit values, WT-1/-3 (W269A set), WT-2 (N276A set)) was 83.76, the Bottom (SSTR2 [1]; [6]) was 4.545 and the Top (SSTR2 [1]; [6]) was 88.3. The Bottom (SSTR2 [1]; [7]) was 0.5214, the Span (SSTR2 [1]; [7]) was 104.2 and the Top (SSTR2 [1]; [7]) was 104.7. It also gave a Bottom (SSTR2 [1]; [8]) of -1.531, a Span (SSTR2 [1]; [8]) of 100.4 and a Top (SSTR2 [1]; [8]) of 98.89. It also gave a Span (SSTR2 [1]; Best-fit values, WT-2 (W269A set)) of 83.11, a Bottom (SSTR2 [1]; [9]) of 7.543 and a Top (SSTR2 [1]; [9]) of 90.66. The Bottom (SSTR2 [1]; [10]) was -1.634, the Span (SSTR2 [1]; [10]) was 102.4 and the Top (SSTR2 [1]; [10]) was 100.7. For the same compound, the Emax (SSTR2 [1]; HEK293, Bystander BRET, SSTR2-WT, n=6, read-out: Emax) was 100%, the Bottom (SSTR2 [1]; [11]) was 14.58 and the Span (SSTR2 [1]; [11]) was 85.75. For the same compound, the Top (SSTR2 [1]; [11]) was 100.3, the Span (SSTR2 [1]; best-fit, SSTR2 WT-1 (control in I284A and K291A blocks), run 1) was 83.76 and the Bottom (SSTR2 [1]; [12]) was 4.545. The Top (SSTR2 [1]; [12]) was 88.3, the Bottom (SSTR2 [1]; [13]) was 19.75 and the Span (SSTR2 [1]; [13]) was 76.3. The Top (SSTR2 [1]; [13]) was 96.05, the Span (SSTR2 [1]; best-fit, SSTR2 WT-2 (control in I284A and K291A blocks), run 2) was 83.11 and the Bottom (SSTR2 [1]; [14]) was 7.543. The Top (SSTR2 [1]; [14]) was 90.66, the Bottom (SSTR2 [1]; best-fit, SSTR2 WT-3 (control in F294A block), run 3) was -1.634 and the Proapoptotic activity (GH3 cells) was “able to activate proapoptotic pathways”. The “Effect of microswitch mutations” value (SSTR2 [2]; CWxP, PIF, DRY and NPxxY motif mutants versus wild-type SSTR2) was “decreased the potency of β-arrestin recruitment more markedly than the activation ability of Gi signaling”, the “Effect of mutants on both signals” value (SSTR2 [2]; D122(3.32) and Q126(3.36) mutants) was “markedly affected both β-arrestin and Gi signal” and the Emax (SSTR3; HEK293, Suppl. Tables 4/5, n=5) was 99.8 ± 8.21%. For the same compound, the “LogEC50 (best-fit)” value (SSTR3; run 1) was -7.262, the “Top (best-fit)” value (SSTR3; run 1) was 103 and the “LogEC50 (best-fit)” value (SSTR3; run 2) was -7.521. For the same compound, the “Top (best-fit)” value (SSTR3; run 2) was 99.85, the “LogEC50 (best-fit)” value (SSTR3; run 3) was -7.466 and the “Top (best-fit)” value (SSTR3; run 3) was 98.24. For the same compound, the “LogEC50 (best-fit)” value (SSTR3; run 4) was -8.231, the “Top (best-fit)” value (SSTR3; run 4) was 100.3 and the Bottom (SSTR2 mutants; I284A-1) was 1.002. The Bottom (SSTR2 mutants; I284A-2) was 9.91 and the Emax (SSTR2 mutants; HEK293) was 94.8 ± 4.62%.
